Earlier results in patent US11751566B2, “Growth regulator concentrate and use thereof” (FINE AGROCHEMICALS LIMITED, priority 2013, dated 2023).

SMILES | solubility in organic polar solvent (solution as generally provided) (organic polar solvent, like an alcohol) | solubility in solvents (including water)
C=C1C[C@]23C[C@@]1(O)CC[C@H]2[C@@]12C=C[C@H](O)[C@@](C)(C(=O)O1)[C@H]2[C@@H]3C(=O)O [GA3, Gibberellic acid] | 3-4 wt % | 
CCC(=O)C1C(=O)CC(C(=O)O)CC1=O (centres unmarked) [Prohexadione] |  | low solubility
